Laboratory results published in ChEMBL document CHEMBL2046436, “Synthesis and structure-activity relationships of benzophenone-bearing diketopiperazine-type anti-microtubule agents” (Bioorg Med Chem, 2012).
Values belong to the molecule of their own block, whether it stands above or below them. Calls of active or inactive are those of the source. The rule behind the calls is not given here.

Assays:
[1] = test system: HT-29; assay: Cytotoxicity against human HT-29 cells after 48 hrs by Resazurin assay; conditions: HT-29, 48 h
[2] = test system: HeLa; assay: Antimitotic activity in human HeLa cells assessed as change in dipolar spindle formation in metaphase at 1 nM after 6 hrs by DAPI staining-based immunofluorescence analysis; type: functional, cell-based
[3] = Inhibition of bovine brain microtubule polymerization by spectrophotometric analysis; parameters: species or system Bos taurus
[4] = test system: HeLa; assay: Antimitotic activity in human HeLa cells assessed as multipolar spindle formation at 3 nM after 6 hrs by DAPI staining-based immunofluorescence analysis; type: functional, cell-based
[5] = test system: HeLa; assay: Antimitotic activity in human HeLa cells assessed as disruption of interphase microtubule network at 10 nM after 6 hrs by DAPI staining-based immunofluorescence analysis; type: functional, cell-based
[6] = test system: HeLa; assay: Antimitotic activity in human HeLa cells assessed as disruption of interphase microtubule network at 3 nM after 6 hrs by DAPI staining-based immunofluorescence analysis; type: functional, cell-based
[7] = molecular target: tubulin (Sus scrofa); assay: Binding affinity to porcine tubulin by spectrophotometric analysis
[8] = test system: HeLa; assay: Cytotoxicity against human HeLa cells after 48 hrs by WST-8 assay; type: functional, cell-based
[9] = test system: A549; assay: Cytotoxicity against human A549 cells after 48 hrs by WST-8 assay; type: functional, cell-based; conditions: A549, 48 h
[10] = test system: HeLa; assay: Antimitotic activity in human HeLa cells assessed as microtubule network damage at interphase at 1 nM after 6 hrs by DAPI staining-based immunofluorescence analysis; type: functional, cell-based
[11] = test system: HT-29; assay: Cytotoxicity against human HT-29 cells after 48 hrs by resazurin assay; type: functional, cell-based; conditions: HT-29, 48 h

Structure (SMILES): COc1cc(C(=O)c2cccc(/C=c3\[nH]c(=O)/c(=C/c4nc[nH]c4C(C)(C)C)[nH]c3=O)c2)cc(OC)c1OC
IC50 [1]: 2.5 µM

Structure (SMILES): COc1ccc(C(=O)c2cccc(/C=c3\[nH]c(=O)/c(=C/c4nc[nH]c4C(C)(C)C)[nH]c3=O)c2)cc1OC
IC50 [1]: 7.3 µM

Structure (SMILES): CC(C)(C)c1[nH]cnc1/C=c1\[nH]c(=O)/c(=C/c2cccc(C(=O)c3cccc(F)c3)c2)[nH]c1=O
IC50 [1]: 0.0006 µM

Structure (SMILES): COc1cccc(C(=O)c2cccc(/C=c3\[nH]c(=O)/c(=C/c4nc[nH]c4C(C)(C)C)[nH]c3=O)c2)c1
IC50 [1]: 0.039 µM

Structure (SMILES): CC(C)(C)c1[nH]cnc1/C=c1\[nH]c(=O)/c(=C/c2cccc(C(=O)c3ccc(Br)cc3)c2)[nH]c1=O
IC50 [1]: 0.004 µM

IC50 [3]: 0.9 µM | Kd [7]: 0.072 µM
Structure (SMILES): CC(C)(C)c1[nH]cnc1/C=c1\[nH]c(=O)/c(=C/c2cccc(C(=O)c3ccc(F)cc3)c2)[nH]c1=O
Activity [2]: inactive | Activity [4]: Active | Activity [5]: Active | Activity [6]: Active | IC50 [8]: 0.0017 µM | IC50 [1]: 0.0005 µM | IC50 [9]: 0.0008 µM | Activity [10]: inactive

Structure (SMILES): CC(C)(C)c1[nH]cnc1/C=c1\[nH]c(=O)/c(=C/c2ccc3c(c2)C(=O)c2ccccc2-3)[nH]c1=O
IC50 [11]: 2.8 µM

Structure (SMILES): COc1ccc(C(=O)c2cccc(/C=c3\[nH]c(=O)/c(=C/c4nc[nH]c4C(C)(C)C)[nH]c3=O)c2)cc1
IC50 [1]: 0.0038 µM

Structure (SMILES): CC(C)(C)c1[nH]cnc1/C=c1\[nH]c(=O)/c(=C/c2cccc(C(=O)c3cccc(Cl)c3)c2)[nH]c1=O
IC50 [1]: 0.002 µM

Structure (SMILES): COc1cccc(C(=O)c2cccc(/C=c3\[nH]c(=O)/c(=C/c4nc[nH]c4C(C)(C)C)[nH]c3=O)c2)c1OC
IC50 [1]: 0.955 µM

Structure (SMILES): CC(C)(C)c1[nH]cnc1/C=c1\[nH]c(=O)/c(=C/c2cccc(C(=O)c3ccc(Cl)cc3)c2)[nH]c1=O
IC50 [1]: 0.0011 µM

Structure (SMILES): CC(C)(C)c1[nH]cnc1/C=c1\[nH]c(=O)/c(=C/c2cccc(C(=O)c3ccccc3Cl)c2)[nH]c1=O
IC50 [1]: 0.006 µM

Structure (SMILES): CC(C)(C)c1[nH]cnc1/C=c1\[nH]c(=O)/c(=C/c2cccc(C(=O)c3ccccc3F)c2)[nH]c1=O
IC50 [1]: 0.003 µM

Structure (SMILES): COc1ccccc1C(=O)c1cccc(/C=c2\[nH]c(=O)/c(=C/c3nc[nH]c3C(C)(C)C)[nH]c2=O)c1
IC50 [1]: 0.36 µM

Structure (SMILES): CC(C)(C)c1[nH]cnc1/C=c1\[nH]c(=O)/c(=C/c2cccc(C(=O)c3ccc(C(F)(F)F)cc3)c2)[nH]c1=O
IC50 [1]: 0.147 µM

Structure (SMILES): COc1cc2c(c(OC)c1OC)-c1ccc(OC)c(=O)cc1[C@@H](NC(C)=O)CC2 [COLCHICINE]
IC50 [8]: 0.0202 µM | IC50 [1]: 0.0093 µM | IC50 [9]: 0.0506 µM

Structure (SMILES): CC(C)(C)c1[nH]cnc1/C=c1\[nH]c(=O)/c(=C/c2cccc(C(O)c3ccccc3)c2)[nH]c1=O (centres undefined)
IC50 [1]: 0.041 µM

Structure (SMILES): CC(C)(C)c1[nH]cnc1/C=c1\[nH]c(=O)/c(=C/c2ccc(C(=O)c3ccccc3)cc2)[nH]c1=O
IC50 [1]: 1.2 µM

Structure (SMILES): COc1ccc(/C=C\c2cc(OC)c(OC)c(OC)c2)cc1O [COMBRETASTATIN A4]
Activity [2]: inactive | IC50 [3]: 0.55 µM | Activity [4]: Active | Activity [5]: Active | Activity [6]: inactive | IC50 [8]: 0.0022 µM | IC50 [9]: 0.0053 µM | IC50 [11]: 12 µM | Activity [10]: inactive

Structure (SMILES): COc1ccc(C(=O)c2cccc(/C=c3\[nH]c(=O)/c(=C/c4nc[nH]c4C(C)(C)C)[nH]c3=O)c2)c(OC)c1
IC50 [1]: 1.8 µM
